Laboratory results from patent US20100143250A1, “COMPOUNDS FOR THE DIAGNOSIS OF APOPTOSIS” (priority 2007, published 2010).
One block for each compound: values may come before it. Ends that are not written are not given here.

Columns and labels:
[1] = system: mouse apoptotic liver; assay: MRI of apoptotic liver in the mouse (anti-Fas antibody induced); type: in vivo, Balb/c mice
Experimental: The targeting effectiveness of the Gd-DTPA-LIKKPF product by MRI was also evaluated on a model of apoptotic liver in the mouse. The apoptosis is induced by means of an i.v. injection (caudal vein) of anti-Fas monoclonal antibody in anesthetized Balb/c mice (Blankenberg et al., 1998, 1999; Rodriguez et al., 1996).
Before the MRI acquisition, the mice are anesthetized with pentobarbital. The experiments are carried out using a 200 MHz Bruker spectrometer (4.7 T) equipped with a vertical magnet and with a mini-imaging system. […] The signal intensity (SI) is measured in the liver. The SI value is also measured in a tube filled with a 2% aqueous solution of gelatin enriched with 50 μM Gd-DTPA, used as a reference product, in a region outside the image of the mouse which corresponds to the background noise. […]
For the two models, the SI values are measured in various regions of interest (at the level of the arterial wall of the abdominal aorta or whole liver) using the OSIRIS image analysis software. […] The SI value is measured on all the image slices where the arterial wall and the liver are visible. […] The % ΔSNR is calculated according to the following equation:
% ΔSNR=[(SIpost/SDnoise)−(SIpre/SDnoise)]/[SIpre/SDnoise]×100 where SDnoise is the standard deviation of the noise measured on a region outside the animal.

[2] = Relaxivity measurements (r1, r2) in aqueous solution; type: physicochemical
Experimental: The relaxation times T1 and T2 were determined by standard procedures on a Minispec 120 instrument (Bruker) at 20 MHz (0.47T) and 37° C. The longitudinal relaxation time T1 is measured using an inversion-recovery sequence and the transverse relaxation time T2 is measured using a CPMG technique.
The relaxation rates R1 (=1/T1) and R2 (=1/T2) were calculated for various concentrations of total metal (ranging from 0.1×10^−3 to 1×10^−3 mol/l) in an aqueous solution at 37° C. The correlation between R1 or R2 as a function of the concentration is linear, and the slope represents the relaxivity r1 (R1/C) or r2 (R2/C) expressed as (1/second)×(1/mmol/l), i.e. (s^−1.mM^−1).

[3] = Interaction of USPIO-LIKKPF with immobilized PS, iron assayed with Prussian blue; type: binding; settings: 2 hours at 37° C., read-out: K*d value
Experimental: The affinity of the USPIO-LIKKPF is measured on immobilized PS (120 μg/ml). After saturation of the nonspecific sites, the USPIO-LIKKPF is incubated at increasing concentrations (122 nM-4 mM with respect to iron) for 2 hours at 37° C. After washing of the wells, the molecules bound to the PS are digested in one volume of 5N HCl. The samples are digested in one volume of 5N HCl, for 48 h at 37° C., and the iron is assayed using Prussian blue (OD630).

[4] = Annexin V competition assay for the interaction of USPIO-LIKKPF with PS; type: binding; settings: FIG. 3
[5] = system: apoptotic Jurkat cells; assay: In vitro MRI on apoptotic or control Jurkat cells preincubated with USPIO; type: cell-based
Experimental: The in vitro MRI is carried out on apoptotic (or control) cells preincubated with the USPIO-LIKKPF or unfunctionalized USPIO (3 or 4 mM with respect to iron) for 2 hours at 37° C. Jurkat cell apoptosis is induced by a treatment with 2 μM camptothecin for 24 hours. After incubation with the USPIO, the labeled cells are transferred into a 0.2% gelatin solution for analysis by MRI (Bruker Avance-200, 4.7 T, TR/TE=3000/20 ms, 30 echos, matrix=256×256, FOV=4 cm, slice thickness=1 mm) in ELISA plate wells.

[6] = system: dopaminergic neurons treated with MPP+; assay: MRI detection in cell culture, healthy cells vs cells treated with MPP+; type: cell-based, rat
Experimental: (§1) MRI studies were carried out on C57BI/6 mice treated with MPTP (or its metabolite MPP+ for cell cultures), a neurotoxin which induces a “parkinsonien” syndrome.
In cell culture, the death of dopaminergic neurons by apoptosis was verified using rat brains, by immunohistochemistry and detection of caspase 3 enzyme activity. For the MRI detection in cell culture, the healthy cells and cells treated with MPP+ were brought into contact with USPIO-LIKKPF.

[7] = system: apoptotic nervous tissues; assay: MRI of mice treated with MPTP (model of Parkinson's disease); type: in vivo; settings: 4th, 5th, 6th day of treatment, one and three weeks after
Experimental: In a model of Parkinson's disease, with the injection of USPIO-LIKKPF product (product of example 1)
as §1
The diseased and healthy mice were studied on the 4th, 5th and 6th day of treatment, and one and three weeks after the end of the treatment with MPTP. […] The MRI localization of the diseased regions corresponds to the regions containing dopaminergic neurons (immunohistochemistry: detection of dopaminergic neurons by measuring tyrosine hydroxylase in the central gray nuclei).

[8] = Annexin V competition assay for peptide LIKKPF on immobilized PS (ELISA plate); type: binding; settings: interaction of peptide LIKKPF with PS, FIG. 1
Experimental: The affinity of the peptide LIKKPF (SEQ ID No 11) is measured on immobilized PS (ELISA plate). […] Incubation at 37° C. is sustained for 1.5 hours. The bound annexin V is detected by adding a solution of streptavidin-HRP, and then a solution of ABTS substrate containing 0.05% of H2O2. The OD405 is measured in order to calculate the IC50 value of the peptide.

Compound: O=C([O-])CN(CCN(CC(=O)[O-])CC(=O)O)CCN(CC(=O)[O-])CC(=O)O.[Gd+3] [Gd-DTPA, reference compound]
MRI signal enhancement in the healthy mouse ([1]; healthy mouse): only a partial signal enhancement

Compound: Leu-Ile-Lys-Lys-Pro-Phe-OH (LIKKPF-OH)
effect of preinjection on the enhancement caused by Gd-DTPA-LIKKPF ([1]; peptide preinjected at 100 μmol/kg, apoptotic liver): blocks the enhancement caused by the Gd-DTPA-LIKKPF

Compound: Peptide No. 1-DTPAGd: Bz-NCS-DTPA condensed with peptide Asp-Ala-His-Ser-Phe-SerOH, complexed with gadolinium (DAHSFS; Bz-NCS-DTPA-Gd conjugate; printed: Asp-Ala-His-Ser-Phe-Ser)
Relaxivities measured at 20 MHz (37° C.) [2]: 6.8 s⁻¹ mM⁻¹

Compound: Peptide No. 3-DTPAGd: Bz-NCS-DTPA condensed with peptide Pro-Gly-Asp-Leu-Ser-Arg-OH, complexed with gadolinium (PGDLSR; Bz-NCS-DTPA-Gd conjugate; printed: Pro-Gly-Asp-Leu-Ser-Arg-)
Relaxivities measured at 20 MHz (37° C.) [2]: 6.7 s⁻¹ mM⁻¹

Compound: USPIO-LIKKPF: USPIO-PEG-PEPTIDE P contrast product with PEPTIDE P being LIKKPF; product of example 1, PEG size not stated (also: coupled to USPIO nanoparticle via PEG linker, site not given here)
Kd [3]: 0.0785 µM | IC50 [4]: 0.42 µM | binding to apoptotic cells by MRI (signal intensity vs control cells) ([5]; Jurkat cells, 2 μM camptothecin 24 hours, 3 or 4 mM iron, 2 hours at 37° C.): binds specifically to the apoptotic cells | decrease in MRI signal induced by incubation, vs unfunctionalized USPIO ([5]; apoptotic cells, 3 mM and 4 mM Fe, FIG. 4): greater than that recorded with the unfunctionalized USPIO | MRI signal of diseased vs healthy cells [6]: diseased cells show a darker signal than the others | uptake of contrast agent (standardized relaxation rate and iron concentration) [6]: diseased cells have taken up a larger amount of vectorized contrast agent | targeting of diseased regions by MRI [7]: more marked at the 5th day

IC50 [8]: 0.00108 µM
Compound: annexin V: endogenous protein of 35 kDa with high affinity and specificity for PS
